We go through 57 compounds from the Kinase Knowledgebase extract (Sharma et al. 2016).

The target of this test is PIK3CB;PIK3CG;PIK3CD;PIK3CA (human) (UniProt P48736). In words: Enzyme Assay.

On to `Nc1ccc2c(c1)-c1c(c(C(=O)N3CCOCC3)nn1-c1ccccc1)CS2(=O)=O`, for which the IC50 came to 368 nM.
Turning to `CC(C)CCN1CCCC(n2nc(C(=O)N3CCOCC3)c3c2-c2ccccc2S(=O)(=O)C3)C1` (configuration not stated), the IC50 was 138 nM.
Under `O=C(c1nn(C2CCCNCC2)c2c1CS(=O)(=O)c1ccccc1-2)N1CCOCC1` (configuration not stated) stands 1900 nM; under `COCCNc1ccc2c(c1)S(=O)(=O)Cc1c(C(=O)N3CCOCC3)nn(-c3ccccc3)c1-2`, 6610 nM; under `CC(C)c1ccc(-n2nc(C(=O)N3CCOCC3)c3c2-c2ccccc2S(=O)(=O)C3)cc1`, 1470 nM.
Under `CS(=O)(=O)C1CCN(Cc2cccc(-n3nc(C(=O)N4CCOCC4)c4c3-c3ccccc3S(=O)(=O)C4)c2)C1` (configuration not stated) stands 464 nM; under `CCCCNc1ccc2c(c1)S(=O)(=O)Cc1c(C(=O)N3CCOCC3)nn(-c3ccccc3)c1-2`, 9790 nM; under `O=C(c1nn([C@H]2CCCN(CCC3CCOCC3)C2)c2c1CS(=O)(=O)c1c(F)cccc1-2)N1CCOCC1`, 6 nM.
Under `COc1ccc2c(c1)S(=O)(=O)Cc1c(C(=O)N3CCOCC3)nn([C@@H]3CCCN(CCC4CCOCC4)C3)c1-2` stands 10300 nM.
`O=C(c1ccc(-n2nc(C(=O)N3CCOCC3)c3c2-c2ccccc2S(=O)(=O)C3)cc1)N1CCCCC1` had an IC50 of 238 nM.
Under `O=C(c1nn(-c2ccccc2Br)c2c1CS(=O)(=O)c1ccccc1-2)N1CCOCC1` stands 5500 nM; under `O=C(c1nn([C@H]2CCCN(CCN3CCCC3)C2)c2c1CS(=O)(=O)c1ccccc1-2)N1CCOCC1`, 7 nM; under `CS(=O)(=O)c1ccc(-n2nc(C(=O)N3CCOCC3)c3c2-c2ccccc2S(=O)(=O)C3)cc1`, 4520 nM.
Under `O=C(c1nn(-c2ccc(CO)cc2)c2c1CS(=O)(=O)c1ccccc1-2)N1CCOCC1` stands 1060 nM; under `O=C(c1nn(CC2CCCCC2)c2c1CS(=O)(=O)c1ccccc1-2)N1CCOCC1`, 509 nM; under `COCCCn1nc(C(=O)N2CCOCC2)c2c1-c1ccccc1S(=O)(=O)C2`, 907 nM.
Under `O=C(c1nn([C@@H]2CCCN(CCF)C2)c2c1CS(=O)(=O)c1ccccc1-2)N1CCOCC1` stands 7970 nM; under `CCC1c2c(C(=O)N3CCOCC3)nn(-c3ccccc3)c2-c2ccccc2S1(=O)=O` (configuration not stated), 2470 nM.
For the compound `CCOc1ccc2c(c1)S(=O)(=O)Cc1c(C(=O)N3CCOCC3)nn(-c3ccc(CN4CCOCC4)cc3)c1-2`, the IC50 stood at 250 nM.
In the case of `O=C(c1nn(-c2ccc(CN3CCCCC3)cc2)c2c1CS(=O)(=O)c1ccccc1-2)N1CCOCC1`, the IC50 was 110 nM.
As to `CN(C)Cc1noc(-c2cccc(-n3nc(C(=O)N4CCOCC4)c4c3-c3ccccc3S(=O)(=O)C4)c2)n1`, the IC50 came out at 2980 nM.
In turn, `O=C(c1nn(-c2ccccc2)c2c1CS(=O)(=O)c1cc(C(F)(F)F)ccc1-2)N1CCOCC1` displayed an IC50 of 3060 nM.
Under `O=C(c1nn(Cc2ccccn2)c2c1CS(=O)(=O)c1ccccc1-2)N1CCOCC1` stands 3960 nM; under `CC1CN(Cc2ccc(-n3nc(C(=O)N4CCOCC4)c4c3-c3ccccc3S(=O)(=O)C4)cc2)CC(C)O1` (configuration not stated), 57 nM; under `CN(C)Cc1cccc(-n2nc(C(=O)N3CCOCC3)c3c2-c2ccccc2S(=O)(=O)C3)c1`, 1110 nM.
Under `O=C(c1nn(-c2cccc(CN3CC(F)(F)C3)c2)c2c1CS(=O)(=O)c1ccccc1-2)N1CCOCC1` stands 643 nM; under `COCCn1nc(C(=O)N2CCOCC2)c2c1-c1ccccc1S(=O)(=O)C2`, 1290 nM; under `O=C(c1nn(C2CN(CCN3CCOCC3)C2)c2c1CS(=O)(=O)c1ccccc1-2)N1CCOCC1`, 236 nM.
Under `COCCCC1c2c(C(=O)N3CCOCC3)nn(-c3ccccc3)c2-c2ccccc2S1(=O)=O` (configuration not stated) stands 5070 nM; under `O=C(c1nn(-c2cccc(CN3CCS(=O)(=O)CC3)c2)c2c1CS(=O)(=O)c1ccccc1-2)N1CCOCC1`, 639 nM.
With `O=C(c1nn([C@H]2CCCN(C3CCCNC3)C2)c2c1CS(=O)(=O)c1ccccc1-2)N1CCOCC1` (some centres not stated), the IC50 is 25 nM.
Regarding `CC(=O)OCCN1CCC(n2nc(C(=O)N3CCOCC3)c3c2-c2ccccc2S(=O)(=O)C3)C1` (configuration not stated), the IC50 turned out to be 871 nM.
Under `O=C(c1nn(-c2ccccc2)c2c1CS(=O)(=O)c1c(-c3ccccc3)cccc1-2)N1CCOCC1` stands 17900 nM; under `COc1ccc(-n2nc(C(=O)N3CCOCC3)c3c2-c2ccccc2S(=O)(=O)C3)cn1`, 2200 nM; under `CC(=O)Nc1ccc2c(c1)-c1c(c(C(=O)N3CCOCC3)nn1-c1ccccc1)CS2(=O)=O`, 876 nM.
Under `O=C(c1ccc2c(c1)-c1c(c(C(=O)N3CCOCC3)nn1-c1ccccc1)CS2(=O)=O)N1CCCCC1` stands 3410 nM; under `O=C(c1nn(C2CCCN(CCN3CC[C@H](F)C3)C2)c2c1CS(=O)(=O)c1ccccc1-2)N1CCOCC1` (some centres not stated), 72 nM.
Under `COCCN1CCC(n2nc(C(=O)N3CCOCC3)c3c2-c2ccccc2S(=O)(=O)C3)C1` (configuration not stated) stands 1480 nM.
As to `O=C(c1nn(-c2ccccc2)c2c1CS(=O)(=O)c1ncccc1-2)N1CCOCC1`, the IC50 worked out at 530 nM.
Under `O=C(c1nn([C@@H]2CCN(C3CCOCC3)C2)c2c1CS(=O)(=O)c1c(F)cccc1-2)N1CCOCC1` stands 2040 nM.
Under `O=C(c1nn(-c2ccccc2F)c2c1CS(=O)(=O)c1ccccc1-2)N1CCOCC1` stands 2000 nM; under `O=C(c1nn([C@H]2CCCN(C3CCOCC3)CC2)c2c1CS(=O)(=O)c1ccccc1-2)N1CCOCC1`, 340 nM; under `O=C(c1nn(-c2ccc(CN3CCCCC3)nc2)c2c1CS(=O)(=O)c1ccccc1-2)N1CCOCC1`, 370 nM.
Under `O=C(c1nn(-c2ccccc2)c2c1CS(=O)(=O)c1ccc(Br)cc1-2)N1CCOCC1` stands 1300 nM.
As for `O=C(c1nn(-c2cccc(F)c2)c2c1CS(=O)(=O)c1ccccc1-2)N1CCOCC1`, the IC50 is 739 nM.
Under `O=C(c1nn([C@H]2CCCN(CCN3CC[C@H](F)C3)C2)c2c1CS(=O)(=O)c1ccccc1-2)N1CCOCC1` stands 14 nM.
Under `O=C(c1nn(-c2cccc(N3CCOCC3)c2)c2c1CS(=O)(=O)c1ccccc1-2)N1CCOCC1` stands 673 nM.
Under `CC(=O)Nc1cccc2c1S(=O)(=O)Cc1c(C(=O)N3CCOCC3)nn(-c3ccccc3)c1-2` stands 9880 nM; under `COCc1noc(-c2cccc(-n3nc(C(=O)N4CCOCC4)c4c3-c3ccccc3S(=O)(=O)C4)c2)n1`, 4190 nM.
In turn, `COCCN1CCC[C@H](n2nc(C(=O)N3CCOCC3)c3c2-c2cccc(F)c2S(=O)(=O)C3)C1` gave an IC50 of 31 nM.
Under `O=C(c1nn([C@@H]2CCCN(CCn3ccnc3)C2)c2c1CS(=O)(=O)c1ccccc1-2)N1CCOCC1` stands 444 nM; under `O=C(c1nn(CC2CCOCC2)c2c1CS(=O)(=O)c1ccccc1-2)N1CCOCC1`, 789 nM; under `Cc1cccc2c1S(=O)(=O)Cc1c(C(=O)N3CCOCC3)nn(-c3ccccc3)c1-2`, 1740 nM.
Compound `NCCN1CCC[C@H](n2nc(C(=O)N3CCOCC3)c3c2-c2ccccc2S(=O)(=O)C3)C1` showed an IC50 of 73 nM.
Under `CC(C)(C)CCN1CCCC(n2nc(C(=O)N3CCOCC3)c3c2-c2ccccc2S(=O)(=O)C3)C1` (configuration not stated) stands 587 nM; under `CC1CN(CCN2CCC[C@H](n3nc(C(=O)N4CCOCC4)c4c3-c3ccccc3S(=O)(=O)C4)C2)CCO1` (some centres not stated), 29 nM; under `O=C(c1nn([C@@H]2CCCN(CCC3CCOCC3)C2)c2c1CS(=O)(=O)c1ccccc1-2)N1CCOCC1`, 2200 nM.

As a reminder, the IC50 is the concentration that gives 50% inhibition.
